Source: US9504252B2, “Microbiocides and uses thereof” (Buckman Laboratories International, Inc., priority 2014, dated 2016)
“Also recorded” adds a separate entry of the source.

Assays:
[1] = system: Acid Producing Bacteria (APB) and General Heterotrophic Bacteria (GHB); test: kill study, phenol red broth serial dilution (APB/GHB); format: cell-based; conditions: for PRD SERIES: APB and GHB count, seven days, 30° C.
Method: (§1) A one gallon sample of cone water from a contaminated drilling fluid (run through a hydrocyclone) in the DJ (Denver-Julesburg Basin) formation was employed for these studies. The cone water pH was measured at 6.4 and the redox potential was at 34.6. The sample included anaerobic sulfate reducing, aerobic and anaerobic acid producing bacteria and general heterotrophic bacteria. Both organism types were present in this sample with the SRB+H2S at levels in excess of 10^12 bacteria per milliliter in the original sample.
(§2) In order to ensure that the active range was captured, the contaminated water was diluted with Butterfield phosphate buffer solution to a concentration of 0.1% of its original concentration. Serial dilutions were made using 1 cc sterile syringes to inoculate 9.0 mL anaerobic American Petroleum Institute (API) broth with an iron nail designed for sulfate reducing bacteria (SRB). In addition, Acid Producing B acteria (APB) and General Heterotrophic Bacteria (GHB) were tested using serial dilutions in 9 mL phenol red (PR) broth. The media salinity was matched to the substrate salinity of ≈0.5% that was measured by percent Total Dissolved Solids (TDS). Additionally, an untreated control was included. In all cases the concentration was determined on a weight/weight basis of parts per million (milligrams per kilogram). Each aliquot was continuously mixed (in a thermally controlled incubator) well after the addition of the biocide and maintained at 30° C. for the duration of study.
(§3) Untreated and treated aliquots were inspected after seven days checking to see if the bottles the API bottles turned black (indicating positive SRB growth) and to see if the PRD bottles turned yellow (indicating the presence of APB) and/or turbidity (indicating the presence of GHB). A color change at the highest dilution indicated the log quantity of organisms present.

[2] = system: sulfate reducing bacteria (SRB); test: kill study, API broth serial dilution (SRB); format: cell-based; conditions: for API SERIES: SRB count, seven days, 30° C.
Method: as §1, §2, §3

SMILES: CNC(=S)[S-].[Na+] [SNMDTC, sodium-N-methyldithiocarbamate]
- decrease in APB/GHB concentration ([1]; 1,000 ppm): did not appear to be any noticeable decrease; also recorded: did not have any noticeable effect
- PRD SERIES ([1]; 1,000 ppm total biocide): ≧10^3
- PRD SERIES ([1]; 10,000 ppm total biocide): >10^2
- decrease in SRB concentration ([2]; 1,000 ppm): did not appear to be any noticeable decrease
- API SERIES ([2]; 1,000 ppm total biocide): >10^4
- API SERIES ([2]; 10,000 ppm total biocide): >10^2
- decrease in bacterial concentration of SRB ([2]; 10,000 ppm, over a period of eight days): two
